# Experimental data as given in patent publication US8686184B2, “Neprilysin inhibitors” (Theravance, Inc., priority 2011, dated 2014).
# Molecular target: T1, human neprilysin (EC 3.4.24.11; NEP) (Homo sapiens, UniProt P08473)
# T1 construct: purchased R&D Systems, Minneapolis, Minn; 1182-ZN
# Assay: In vitro enzyme inhibition assay at human NEP (fluorogenic peptide substrate)
# Format: biochemical
# Conditions: recombinant human NEP; 37° C.; substrate Mca-D-Arg-Arg-Leu-Dap-(Dnp)-OH 10 μM; values given as ranges; read-out: pKi values at human NEP (converted)
# Method: In vitro Assays for the Quantitation of Inhibitor Potencies at Human and Rat NEP, and Human ACE
# The inhibitory activities of compounds at human and rat neprilysin (EC 3.4.24.11; NEP) and human angiotensin converting enzyme (ACE) were determined using in vitro assays as described below.
# Recombinant human NEP and recombinant human ACE were obtained commercially (R&D Systems, Minneapolis, Minn., catalog numbers 1182-ZN and 929-ZN, respectively). The fluorogenic peptide substrate Mca-D-Arg-Arg-Leu-Dap-(Dnp)-OH (Medeiros et al. (1997) Braz. J. Med. Biol. Res. 30:1157-62; Anaspec, San Jose, Calif.) and Abz-Phe-Arg-Lys(Dnp)-Pro-OH (Araujo et al. (2000) Biochemistry 39:8519-8525; Bachem, Torrance, Calif.) were used in the NEP and ACE assays respectively.
# The assays were performed in 384-well white opaque plates at 37° C. using the fluorogenic peptide substrates at a concentration of 10 μM in Assay Buffer (NEP: 50 mM HEPES, pH 7.5, 100 mM NaCl, 0.01% polyethylene glycol sorbitan monolaurate (Tween-20), 10 μM ZnSO4; ACE: 50 mM HEPES, pH 7.5, 100 mM NaCl, 0.01% Tween-20, 1 μM ZnSO4).
# Test compounds were assayed over the range of concentrations from 10 μM to 20 pM. Test compounds were added to the enzymes and incubated for 30 minute at 37° C. prior to initiating the reaction by the addition of substrate. Reactions were terminated after 20 minutes of incubation at 37° C. by the addition of glacial acetic acid to a final concentration of 3.6% (v/v).
# Plates were read on a fluorometer with excitation and emission wavelengths set to 320 nm and 405 nm, respectively Inhibition constants were obtained by nonlinear regression of the data using the equation (GraphPad Software, Inc., San Diego, Calif.): v=v0/[1+(I/K′)] where v is the reaction rate, v0 is the uninhibited reaction rate, I is the inhibitor concentration and K′ is the apparent inhibition constant.
# Compounds of the invention were tested in this assay and found to have pKi values at human NEP as follows.
# T1 sequence (P08473 52-750 limits assumed): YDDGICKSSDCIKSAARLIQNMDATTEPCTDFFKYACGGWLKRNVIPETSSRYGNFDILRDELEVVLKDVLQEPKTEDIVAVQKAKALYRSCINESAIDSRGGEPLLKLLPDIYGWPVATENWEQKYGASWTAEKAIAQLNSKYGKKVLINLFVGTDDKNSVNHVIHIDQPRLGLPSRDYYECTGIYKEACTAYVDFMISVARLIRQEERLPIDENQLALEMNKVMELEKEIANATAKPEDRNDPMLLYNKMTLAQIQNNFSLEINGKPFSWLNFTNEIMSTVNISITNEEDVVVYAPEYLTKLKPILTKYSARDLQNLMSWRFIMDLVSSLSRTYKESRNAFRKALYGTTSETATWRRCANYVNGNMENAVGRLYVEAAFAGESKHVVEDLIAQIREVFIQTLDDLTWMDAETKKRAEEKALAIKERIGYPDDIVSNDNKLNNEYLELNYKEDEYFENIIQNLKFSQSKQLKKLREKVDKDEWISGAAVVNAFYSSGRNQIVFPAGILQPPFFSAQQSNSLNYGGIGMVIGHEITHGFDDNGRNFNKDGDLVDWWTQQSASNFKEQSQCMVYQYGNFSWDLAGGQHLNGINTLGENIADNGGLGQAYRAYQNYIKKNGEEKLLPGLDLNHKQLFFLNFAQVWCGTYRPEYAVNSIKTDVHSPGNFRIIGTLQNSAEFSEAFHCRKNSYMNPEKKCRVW
row,Ki [nM],Structure (SMILES)
1,12.6 to 100,"O=C(N[C@H](Cc1ccccc1)[C@@H](O)C(=O)O)c1ccc(C2CCCCC2)cc1 [Example 10-40, (2R,3R)-3-(4-Cyclohexyl-benzoylamino)-2-hydroxy-4-phenyl-butyric acid]"
2,12.6 to 100,"CC1=NN(c2ccc(C(=O)N[C@H](Cc3ccccc3)[C@@H](O)C(=O)O)cc2)C(=O)C1 [Example 10-41, (2R,3R)-2-Hydroxy-3-[4-(3-methyl-5-oxo-4,5-dihydro-pyrazol-1-yl)-benzoylamino]-4-phenyl-butyric acid]"
3,12.6 to 100,"O=C(N[C@H](Cc1ccccc1)[C@@H](O)C(=O)O)c1ccc(-n2cccc2)cc1 [Example 10-43, (2R,3R)-2-Hydroxy-4-phenyl-3-(4-pyrrol-1-yl-benzoylamino)-butyric acid]"
4,12.6 to 100,"O=C(N[C@H](Cc1ccccc1)[C@@H](O)C(=O)O)c1ccc(Cn2cccc2)cc1 [Example 10-44, (2R,3R)-2-Hydroxy-4-phenyl-3-(4-pyrrol-1-ylmethyl-benzoylamino)-butyric acid]"
5,12.6 to 100,"Cc1nnnn1Cc1ccc(C(=O)N[C@H](Cc2ccccc2)[C@@H](O)C(=O)O)cc1 [Example 10-45, (2R,3R)-2-Hydroxy-3-[4-(5-methyl-tetrazol-1-ylmethyl)-benzoylamino]-4-phenyl-butyric acid]"
6,12.6 to 100,"O=C(N[C@H](Cc1ccccc1)[C@@H](O)C(=O)O)c1ccc(Cn2ccnc2)cc1 [Example 10-46, (2R,3R)-2-Hydroxy-3-(4-imidazol-1-ylmethyl-benzoylamino)-4-phenyl-butyric acid]"
7,12.6 to 100,"O=C(N[C@H](Cc1ccccc1)[C@@H](O)C(=O)O)c1ccc(CCn2ccnc2)cc1 [Example 10-47, (2R,3R)-2-Hydroxy-3-[4-(2-imidazol-1-yl-ethyl)-benzoylamino]-4-phenyl-butyric acid]"
8,1.26 to 10,"O=C(O)Cc1ccccc1-c1ccc(C(=O)N[C@H](Cc2ccccc2)[C@@H](O)C(=O)O)cc1 [Example 10-48, (2R,3R)-3-[(2′-Carboxymethyl-biphenyl-4-carbonyl)-amino]-2-hydroxy-4-phenyl-butyric acid]"
9,12.6 to 100,"O=C(O)Cc1cccc(-c2ccc(C(=O)N[C@H](Cc3ccccc3)[C@@H](O)C(=O)O)cc2)c1 [Example 10-49, (2R,3R)-3-[(3′-Carboxymethyl-biphenyl-4-carbonyl)-amino]-2-hydroxy-4-phenyl-butyric acid]"
10,12.6 to 100,"O=C(O)Cc1ccc(-c2ccc(C(=O)N[C@H](Cc3ccccc3)[C@@H](O)C(=O)O)cc2)cc1 [Example 10-50, (2R,3R)-3-[(4′-Carboxymethyl-biphenyl-4-carbonyl)-amino]-2-hydroxy-4-phenyl-butyric acid]"
11,12.6 to 100,"O=C(O)c1cccc(-c2ccc(C(=O)N[C@H](Cc3ccccc3)[C@@H](O)C(=O)O)cc2)c1 [Example 10-51, 4′-((1R,2R)-1-Benzyl-2-carboxy-2-hydroxy-ethylcarbamoyl)-biphenyl-3-carboxylic acid]"
12,12.6 to 100,O=C(Nc1ccc(C(=O)N[C@H](Cc2ccccc2)[C@@H](O)C(=O)O)cc1)Nc1sccc1C(=O)O [Example 10-52]
13,12.6 to 100,Cc1cc(C(=O)O)c(NC(=O)Nc2ccc(C(=O)N[C@H](Cc3ccccc3)[C@@H](O)C(=O)O)cc2)s1 [Example 10-53]
14,12.6 to 100,"Cc1ccc(C(=O)N[C@H](Cc2ccccc2)[C@@H](O)C(=O)O)cc1Br [Example 10-54, (2R,3R)-3-(3-Bromo-4-methyl-benzoylamino)-2-hydroxy-4-phenyl-butyric acid]"
15,12.6 to 100,"CC(C)c1ccc(C(=O)N[C@H](Cc2ccccc2)[C@@H](O)C(=O)O)cc1Br [Example 10-55, (2R,3R)-3-(3-Bromo-4-isopropyl-benzoylamino)-2-hydroxy-4-phenyl-butyric acid]"
16,12.6 to 100,"CCCNc1ccc(C(=O)N[C@H](Cc2ccccc2)[C@@H](O)C(=O)O)cc1Cl [Example 10-56, (2R,3R)-3-(3-Chloro-4-propylamino-benzoylamino)-2-hydroxy-4-phenyl-butyric acid]"

row,Ki [nM],Structure (SMILES)
1,12.6 to 100,"Cc1cc(C(=O)N[C@H](Cc2ccccc2)[C@@H](O)C(=O)O)ccc1-n1c(C)cc(C=O)c1C [Example 10-57, (2R,3R)-3-[4-(3-Formyl-2,5-dimethyl-pyrrol-1-yl)-3-methyl-benzoylamino]-2-hydroxy-4-phenyl-butyric acid]"
2,12.6 to 100,"Cc1cc(C(=O)N[C@H](Cc2ccccc2)[C@@H](O)C(=O)O)ccc1-n1cccc1 [Example 10-58, (2R,3R)-2-Hydroxy-3-(3-methyl-4-pyrrol-1-yl-benzoylamino)-4-phenyl-butyric acid]"
3,12.6 to 100,"O=C(O)CCc1cccc(C(=O)N[C@H](Cc2ccccc2)[C@@H](O)C(=O)O)c1 [Example 10-59, (2R,3R)-3-[3-(2-Carboxy-ethyl)-benzoylamino]-2-hydroxy-4-phenyl-butyric acid]"
4,12.6 to 100,"CCCC1=NN(c2cccc(C(=O)N[C@H](Cc3ccccc3)[C@@H](O)C(=O)O)c2)C(=O)C1 [Example 10-60, (2R,3R)-2-Hydroxy-3-[3-(5-oxo-3-propyl-4,5-dihydro-pyrazol-1-yl)-benzoylamino]-4-phenyl-butyric acid]"
5,12.6 to 100,"Cc1ccc(C(=O)N[C@H](Cc2ccccc2)[C@@H](O)C(=O)O)cc1-c1ccc(C(=O)O)cc1 [Example 10-61, 5′-((1R,2R)-1-Benzyl-2-carboxy-2-hydroxy-ethylcarbamoyl)-2′-methyl-biphenyl-4-carboxylic acid]"
6,12.6 to 100,"Cc1ccc(C(=O)N[C@H](Cc2ccccc2)[C@@H](O)C(=O)O)cc1-c1cccc(C(=O)O)c1 [Example 10-62, 5′-((1R,2R)-1-Benzyl-2-carboxy-2-hydroxy-ethylcarbamoyl)-2′-methyl-biphenyl-3-carboxylic acid]"
7,1.26 to 10,"O=C(N[C@H](Cc1ccccc1)[C@@H](O)C(=O)O)c1cccc(-c2ncccc2C(=O)O)c1 [Example 10-63, 2-[3-((1R,2R)-1-Benzyl-2-carboxy-2-hydroxy-ethylcarbamoyl)-phenyl]-nicotinic acid]"
8,12.6 to 100,"O=C(N[C@H](Cc1ccccc1)[C@@H](O)C(=O)O)c1cccc(-c2cccnc2C(=O)O)c1 [Example 10-64, 3-[3-((1R,2R)-1-Benzyl-2-carboxy-2-hydroxy-ethylcarbamoyl)-phenyl]-pyridine-2-carboxylic acid]"
9,≤ 1,"CCc1ccc(C(=O)N[C@H](Cc2ccccc2)[C@@H](O)C(=O)O)cc1-n1c(=O)[nH]c2sc(C)cc2c1=O [Example 10-65, (2R,3R)-3-[4-Ethyl-3-(6-methyl-2,4-dioxo-1,4-dihydro-2H-thieno[2,3-d]pyrimidin-3-yl)-benzoylamino]-2-hydroxy-4-phenyl-butyric acid]"
10,12.6 to 100,"CCCCC(=O)Nc1cc(C(=O)N[C@H](Cc2ccccc2)[C@@H](O)C(=O)O)ccc1CC [Example 10-66, (2R,3R)-3-(4-Ethyl-3-pentanoylamino-benzoylamino)-2-hydroxy-4-phenyl-butyric acid]"
11,12.6 to 100,"CCc1ccc(C(=O)N[C@H](Cc2ccccc2)[C@@H](O)C(=O)O)cc1NC(=O)CC(=O)O [Example 10-67, (2R,3R)-3-[3-(2-Carboxy-acetylamino)-4-ethyl-benzoylamino]-2-hydroxy-4-phenyl-butyric acid]"
12,12.6 to 100,"CCc1ccc(C(=O)N[C@H](Cc2ccccc2)[C@@H](O)C(=O)O)cc1NC(=O)c1ccccc1 [Example 10-68, (2R,3R)-3-(3-Benzoylamino-4-ethyl-benzoylamino)-2-hydroxy-4-phenyl-butyric acid]"
13,12.6 to 100,"CCc1ccc(C(=O)N[C@H](Cc2ccccc2)[C@@H](O)C(=O)O)cc1NC(=O)c1cccnc1 [Example 10-69, (2R,3R)-3-{4-Ethyl-3-[(pyridine-3-carbonyl)-amino]-benzoylamino}-2-hydroxy-4-phenyl-butyric acid]"
14,12.6 to 100,"CCc1ccc(C(=O)N[C@H](Cc2ccccc2)[C@@H](O)C(=O)O)cc1NC(=O)c1ccccn1 [Example 10-70, (2R,3R)-3-{4-Ethyl-3-[(pyridine-2-carbonyl)-amino]-benzoylamino}-2-hydroxy-4-phenyl-butyric acid]"
15,12.6 to 100,"CCc1ccc(C(=O)N[C@H](Cc2ccccc2)[C@@H](O)C(=O)O)cc1NC(=O)c1ccncc1 [Example 10-71, (2R,3R)-3-{4-Ethyl-3-[(pyridine-4-carbonyl)-amino]-benzoylamino}-2-hydroxy-4-phenyl-butyric acid]"
16,12.6 to 100,"CCNC(=O)Nc1cc(C(=O)N[C@H](Cc2ccccc2)[C@@H](O)C(=O)O)ccc1CC [Example 10-72, (2R,3R)-3-[4-Ethyl-3-(3-ethyl-ureido)-benzoylamino]-2-hydroxy-4-phenyl-butyric acid]"
